# According to patent publication US8829035B2, “Agent for treatment or prevention of diseases associated with activity of neurotrophic factors” (Sumitomo Chemical Company, Limited, priority 2009, dated 2014):
# Counter-ions that a name gives are not always drawn.
# Tested on: activity of 200 ng/mL of NGF (NXF promoter-driven luciferase in PC12 cells)
# Assay: Luciferase reporter assay (NXF promoter) in PC12 cells: potentiation of NGF activity
# Assay type: cell-based, rat
# Design: key: +: Showed relatively weak potentiation (potentiation only exhibited at 10 μM); ++: Showed potentiation; +++: Showed particularly strong potentiation (2-fold or greater potentiation of the activity of 200 ng/mL of NGF at 1 μM)
# Conditions: Test Example 4, same manner as Test Example 1, relative luciferase activity vs 200 ng/mL NGF alone
# Description: The forward primer 5′-[…]-3′ and the reverse primer 5′-[…]-3′ were prepared as the PCR primers according to the sequence information for the NXF gene genome sequence (Accession Nos. AB054577 and NC—000085), and the PCR method was used to isolate from approximately 5 kbp upstream from the translated region of the NXF gene promoter portion to the vicinity of the transcription start site. For this, 1 μg of mouse genomic DNA (Takara) was used as the template, and the 2-step PCR reaction was carried out for 35 cycles, the conditions for which were 95° C./1 m in the denaturing step, and 68° C./8 m in the annealing and extension steps, to obtain the PCR product. The NXF promoter fragment was inserted into the SmaI site of the pGL3 Basic vector (Promega) in the upstream of luciferase gene to prepare a reporter plasmid that would express the luciferase enzyme driven by the NXF promoter.
# PC12 cells (available from the ATCC) were cultured using RPMI medium (GIBCO-BRL) with 5% FCS (GIBCO-BR) and 15% horse serum (GIBCO-BRL) added, and 1 mM in sodium pyruvate (GIBCO-BRL), at 37° C. in the presence of 5% CO2. After transfection in 10^6 of these PC12 cells for 2 days with 12 μg of the above-described reporter plasmid and 1 μg of pRC/RSV vector (Invitrogen) using the Lipofectamine 2000 reagent (Invitrogen), the medium was exchanged for fresh medium containing 40 mg/L of geneticin sulfate (GIBCO), and this was cultured continuously. Culturing was continued for approximately 1 month with medium exchange of the cultured medium containing 40 mg/L of geneticin sulfate (GIBCO) every several days, with the result that multiple colonies of the obtained cells were picked up. Among these, one of the colonies that induced luciferase activity in the presence of 40 ng/mL of NGF (Wako Pure Chemicals) was selected and used for the cells to evaluate the activity of the compounds below.
# These cells were set up in 96-well plates with 80% confluence, and the luciferase reporter assay was conducted using the Promega Steady Glo luciferase assay kit. The procedure was carried out overnight (approx. 16 hours) using culture medium containing the compound, and the Steady Glo substrate solution was added to the cells in half-diluted in PBS after removal of all remaining medium containing the compound. After this was allowed to stand for 30 minutes, the respective quantity of light produced was measured with a luminometer (Envision Perkin Elmer).
# The activity of the compounds for evaluation was measured as the potentiation of the activity of 200 ng/mL of NGF. For the experiment control wells, the negative control well had medium containing only a final concentration of 0.1% DMSO, the positive control well had medium containing a saturation concentration of NGF. In addition, a test well was set up containing 0.1% DMSO with 200 ng/mL of NGF added corresponding to a 0 compound concentration. When its luciferase activity was taken as a standard, the relative luciferase activity could be calculated for the test wells to which the compound solution (dissolved in DMSO and prepared to have a final DMSO concentration of 0.1%) had been added in addition to the 200 ng/mL of NGF, to find the potentiation of the activity of 200 ng/mL of NGF due to that compound.
row,Structure (SMILES),Activity (potentiation of NGF activity)
1,"NCc1nc2cc(-c3nc4ccccc4o3)ccc2n1C1CCOCC1 [Ex. 67, 2-aminomethyl-5-(benzoxazol-2-yl)-1-(tetrahydropyran-4-yl)benzimidazole hydrochloride]",+
2,"c1ccc(CCc2nc3cc(-c4nc5ccccc5o4)ccc3n2C2CCOCC2)cc1 [Ex. 68, 5-(benzoxazol-2-yl)-2-(2-phenylethyl)-1-(tetrahydropyran-4-yl)benzimidazole]",++
3,"C(#Cc1nc2cc(-c3nc4ccccc4o3)ccc2n1C1CCOCC1)c1ccccc1 [Ex. 69, 5-(benzoxazol-2-yl)-2-(2-phenylethynyl)-1-(tetrahydropyran-4-yl)benzimidazole]",++
4,"Cc1nc2cc(-c3nc4cc(C5CCCCC5)ccc4o3)ccc2n1C1CCOCC1 [Ex. 72, 5-(5-cyclohexylbenzoxazol-2-yl)-2-methyl-1-(tetrahydropyran-4-yl)benzimidazole]",++
5,"Cc1nc2cc(-c3nc4cc(C#N)ccc4o3)ccc2n1C1CCOCC1 [Ex. 75, 5-(5-cyanobenzoxazol-2-yl)-2-methyl-1-(tetrahydropyran-4-yl)benzimidazole]",++
6,"Cc1nc2cc(-c3nc4cc(OC(F)(F)F)ccc4o3)ccc2n1C1CCOCC1 [Ex. 76, 5-(5-trifluoromethoxybenzoxazol-2-yl)-2-methyl-1-(tetrahydropyran-4-yl)benzimidazole]",++
7,"ClC(Cl)(Cl)c1nc2cc(-c3nc4ccccc4o3)ccc2n1C1CCOCC1 [Ex. 77, 5-(benzoxazol-2-yl)-1-(tetrahydropyran-4-yl)-2-trichloromethylbenzimidazole]",+
8,"Cc1nc2cc(-c3nc4ccccc4o3)ccc2n1C1CCC(=O)CC1 [Ex. 78, 5-(benzoxazol-2-yl)-1-(cyclohexanon-4-yl)-2-methylbenzimidazole]",++
9,"Cc1nc2cc(-c3nc4ccccc4o3)ccc2n1Cc1ccccn1 [Ex. 79, 5-(benzoxazol-2-yl)-2-methyl-1-(2-picolyl)benzimidazole]",++
10,"Cc1nc2cc(-c3nc4ccccc4o3)ccc2n1CCC1CCOCC1 [Ex. 83, 5-(benzoxazol-2-yl)-2-methyl-1-(2-(tetrahydropyran-4-yl)ethyl)benzimidazole]",++
11,"Cc1nc2cc(-c3nc4ccccc4o3)ccc2n1CC1CCOCC1 [Ex. 84, 5-(benzoxazol-2-yl)-2-methyl-1-((tetrahydropyran-4-yl)methyl)benzimidazole]",++
12,"CCOC(=O)Cc1nc2cc(-c3nc4ccccc4o3)ccc2n1C1CCOCC1 [Ex. 86, 5-(benzoxazol-2-yl)-2-(ethoxycarbonylmethyl)-1-(tetrahydropyran-4-yl)benzimidazole]",++
13,"Cc1nc2cc(-c3nc4ccccc4o3)ccc2n1C1CCCc2ccccc21 (centres unmarked) [Ex. 87, 5-(benzoxazol-2-yl)-2-methyl-1-(1,2,3,4-tetrahydronaphthalen-1-yl)benzimidazole]",++
14,"Cc1nc2cc(-c3nc4ccccc4o3)ccc2n1C(c1ccccc1)c1ccccc1 [Ex. 89, 5-(benzoxazol-2-yl)-2-diphenylmethyl-2-methylbenzimidazole]",++
15,"c1ccc2oc(-c3ccc4c(c3)nc(C3CCCO3)n4C3CCOCC3)nc2c1 (centres unmarked) [Ex. 90, 5-(benzoxazol-2-yl)-2-(tetrahydrofuran-2-yl)-1-(tetrahydropyran-4-yl)benzimidazole]",++
16,"Cc1nc2cc(-c3nc4ccccc4o3)ccc2n1CC(=O)O [Ex. 92, 5-(benzoxazol-2-yl)-1-carboxymethyl-2-methylbenzimidazole]",++
17,Cc1nc2cc(-c3nc4ccccc4o3)cc(C(F)(F)F)c2n1C1CCOCC1 [Ex. 94],++
18,"Cc1nc2cc(-c3nc4ccccc4o3)ccc2n1CCCN1CCOCC1 [Ex. 96, 5-(benzoxazol-2-yl)-2-methyl-1-(3-(morpholine-4-yl)propyl)benzimidazole]",++

row,Structure (SMILES),Activity (potentiation of NGF activity)
1,"Cc1nc2cc(-c3nc4cc(C(=O)O)ccc4o3)ccc2n1C1CCOCC1 [Ex. 97, 5-(5-carboxylbenzoxazol-2-yl)-2-methyl-1-(tetrahydropyran-4-yl)benzimidazole]",++
2,"CCCNC(=O)c1ccc2oc(-c3ccc4c(c3)nc(C)n4C3CCOCC3)nc2c1 [Ex. 99, 2-methyl-5-(5-n-propylaminocarbonylbenzoxazol-2-yl)-1-(tetrahydropyran-4-yl)benzimidazole]",++
3,"CC(=O)NCc1nc2cc(-c3nc4cc(Cl)ccc4o3)ccc2n1C1CCOCC1 [Ex. 104, 2-acetylaminomethyl-5-(5-chlorobenzoxazol-2-yl)-1-(tetrahydropyran-4-yl)benzimidazole]",++
4,Cc1nc2cc(-c3nc4ccccc4o3)ccc2n1CC(=O)N1CCOCC1 [Ex. 107],+
5,"Cc1nc2cc(-c3nc4ccccc4o3)ccc2n1CCNC(=O)CCC(=O)O [Ex. 108, 4-oxo-4-(2-(5-(benzoxazol-2-yl)-2-methylbenzimidazol-1-yl)ethyl)aminobutyric acid]",++
6,"Cc1nc2cc(-c3nc4ccccc4o3)ccc2n1CCNC(=O)C(F)(F)F [Ex. 109, 5-(benzoxazol-2-yl)-2-methyl-1-(2-trifluoroacetylaminoethyl)benzimidazole]",++
7,"c1ccc2oc(-c3ccc4c(c3)nc(CC3CCOCC3)n4C3CCOCC3)nc2c1 [Ex. 111, 5-(benzoxazol-2-yl)-1-(tetrahydropyran-4-yl)-2-(tetrahydropyran-4-yl)methylbenzimidazole]",++
8,"Cc1nc2cc(-c3nc4ccccc4o3)c(Cl)cc2n1C1CCOCC1 [Ex. 112, 5-(benzoxazol-2-yl)-2-methyl-1-(tetrahydropyran-4-yl)-6-chlorobenzimidazole]",++
9,"COC(=O)c1ccc(Cn2c(C)nc3cc(-c4nc5ccccc5o4)ccc32)cc1 [Ex. 113, 5-(benzoxazol-2-yl)-1-(4-methoxycarbonylphenylmethyl)-2-methylbenzimidazole]",++
10,"Cc1nc2cc(-c3nc4ccccc4o3)ccc2n1Cc1ccc(C(=O)O)cc1 [Ex. 114, 5-(benzoxazol-2-yl)-1-(4-carboxyphenylmethyl)-2-methylbenzimidazole]",++
11,"COC(=O)c1cccc(Cn2c(C)nc3cc(-c4nc5ccccc5o4)ccc32)c1 [Ex. 117, 5-(benzoxazol-2-yl)-1-(3-methoxycarbonylphenylmethyl)-2-methylbenzimidazole]",++
12,"CC(=O)OCC(c1ccccc1)n1c(C)nc2cc(-c3nc4ccccc4o3)ccc21 (centres unmarked) [Ex. 118, 5-(1-benzoxazol-2-yl)-1-(1-acetoxy-2-phenylethan-2-yl)-2-methylbenzimidazole]",++
13,"Cc1nc2cc(-c3nc4ccccc4o3)ccc2n1C(CO)c1ccccc1 (centres unmarked) [Ex. 120, 5-(1-benzoxazol-2-yl)-1-(2-phenylethanol-2-yl)-2-methylbenzimidazole]",++
14,"Cc1nc2cc(-c3nc4ccccc4o3)ccc2n1CC(C)C(=O)OC(C)(C)C (centres unmarked) [Ex. 121, 5-(benzoxazol-2-yl)-2-methyl-1-(2-tert-butoxycarbonyl-n-propyl)benzimidazole]",++
15,"Clc1ccccc1-c1nc2cc(-c3nc4ccccc4o3)ccc2n1C1CCOCC1 [Ex. 126, 5-(benzoxazol-2-yl)-2-(2-chlorophenyl)-1-(tetrahydropyran-4-yl)benzimidazole]",++
16,Cc1nc2cc(-c3nc4ccccc4o3)ccc2n1CCN(C)C [Ex. 130],++
17,"Cc1nc2cc(-c3nc4ccccc4o3)ccc2n1CCS(C)(=O)=O [Ex. 132, 5-(benzoxazol-2-yl)-1-(2-(methylsulfonyl)ethyl)-2-methylbenzimidazole]",++
